Experimental findings from PMC5485613, “A novel TRPM8 agonist relieves dry eye discomfort” (BMC Ophthalmology, 2017) are described below.

Data set [1] relates to patients with dry eye disease. Description: Four times daily application for 2 weeks in patients with dry eye disease (Expt 2). It counts as in vivo, human. Here is the method:
Initially, a total of 60 additional patients fulfilling the inclusion criteria were assessed for eligibility, and 54 subjects who decided to participate were randomized into two groups as described above (Additional file 1: Figure S4). Vehicle or C3 were prepared as 1 mL solutions placed into unit applicators called Swabdose™ made by Unicep Corporation, Sandpoint, ID. These applicators are singly encased in a polypropylene container with a 6.35 mm cotton tip attached to a 74.6 mm polystyrene handle. USP purified water (placebo units) or a C3 sample (2 mg/mL in USP purified water) was prepared onsite under clean conditions and packaged with automated equipment. Each subject was given 14 Swabdoses for the 2-week study period. The subjects were instructed to apply the cotton-tipped applicator to the edges of the closed eyelids once every 6 h per day for 14 days. The applicators were pre-weighed and the subjects were told to use to same applicator for each day and to save the applicator in a plastic bag at the end of the day. The applicators were collected, weighed and compared with the weight before application. TBUT, basal tear secretion, and corneal staining assessed by KEP scores were analyzed before and at 1 and 2 weeks thereafter. For TBUT, basal tear secretion, and KEP only the results from the right eye were scored for data analysis.
Three questionnaires were used at each patient visit to analyze the effects of treatment on ocular discomfort. Firstly, DED symptoms were assessed using a visual analogue scale (VAS) score of 1 to 10. Next, symptoms were assessed using the ocular surface disease index (OSDI) questionnaire, consisting of 12 questions graded on a scale from 0 to 4 (0 = “none of the time” and 4 = “all the time”). An overall score was calculated (0–100) by using the following equation: (25 × (sum of answered question scores/number of questions answered)). Participants were also asked to grade five symptoms associated with the CVS. The symptoms of fatigue, burning, dryness, blurred vision, and dullness of vision was ranked on a scale of 0 to 6 (0 = “no symptom”, 6 = “very severe symptom”) and the average aggregate score for the two test groups are reported.

The subject of the next data set is rats. Description: Shaking activity (wet dog shakes) after intravenous, perioral and topical administration. It counts as in vivo, rat. Here is the method: Male rats weighing 220–260 g were anesthetized with sodium pentobarbital, 55 mg/kg intraperitoneal, and after the loss of the righting reflex, animals were placed on a table and body temperature was recorded. The femoral vein was cannulated with polyethylene-20 tubing connected to a 1 mL syringe. For the intravenous and perioral routes, 0.1 mL of solution was given per 100 g body weight at a dose of 2 mg/kg or 20 mg/kg, respectively. For topical administration, the abdominal skin was shaved and 20 μL of the pure Dapa was applied with a micropipette on a ~ 1 cm diameter circle of skin, enclosed with a ring of cream (Baby cream “NevskayakosmetikaDetskyi” NevskayaKosmetika Inc., Saint-Petersburg 192,029). Animals were observed and shaking frequency counted for 15, 40 min and 1 h after intravenous, perioral, and topical applications, respectively. There were n = 3 to 6 rats per test substance. For the intravenous route, two trials were conducted in the same animal with a 10 to 15 min interval between doses. The shaking frequency shown in the graphs is for the second trial. Shaking behavior are rapid alternating contractions of the supination and pronation muscles about the spinal axis, and can be readily observed in the readily observed in the unanesthetized or anesthetized state and counted (Additional file 2: Movie S1). The pattern of response after intravenous, perioral, and topical delivery provides information on the ability of the molecule to cross membrane barriers. Experiments on rats were ended by euthanasia with intraperitoneal injection of sodium pentobarbital 150 mg/kg.
Supplementary file 12886_2017_495_MOESM2_ESM.mp4: Additional file 2: Movie S1. Shaking response to a 1-diisopropylphosphorylnonane. Video recording 20 to 40 min period after oral dosing with C3 at 50 mg/kg. C3 was dissolved in 5% ethanol-95% R-1,2-propanediol. The total observation period was 120 min. […] (MP4 3699 kb)

Another data set has as its system volunteers. Description: C3 eye drop instilled in volunteers, sensation scores. It counts as in vivo, human. As to the method: Eye drops represent ~90% of formulations used for treatment of anterior eye disorders. […] Subjects were asked to rate discomfort, blurring, and coolness sensations, on a scale of 0 (no effect) to 5 (intense effect) at 5, 10, and 15 min after instillation. […] Cooling sensation scores were significant at 5 min (2.6 vs 0.2), but there were not much cooling at 10 (0.8 vs 0.2) or 15 min (0.2 vs 0.2). It appeared as if eye drops are a relatively inefficient method of C3 delivery because the drop splashes in a confined space and the time for the active ingredient to be retained on target receptors is short. Furthermore, the initial period of discomfort is not desirable. To determine if there were other TRPM8 targets on the orbit, we examined the mouse eye with a selective TRPM8-GFP reporter line.

A further data set addresses T1, mouse TRPV1 (Mus musculus, UniProt Q704Y3).
T1 construct: expressed in transfected cells; host or cells: KNRK cells (rat kidney), transiently transfected
Description: TRPV1 calcium imaging (Fura-2) in transfected KNRK cells. The class given is cell-based. The following applies: 10 μM. Here is the method: To further examine the specificity of C3, tests were conducted on TRPV1 channels and TRPA1 channels expressed in Kirsten murine sarcoma virus transformed rat kidney (KNRK) cells. KNRK cells were cultured as a monolayer and maintained in Dulbeccos’s Modified Eagles’s Medium (Life Technologies), supplemented with 10% fetal bovine serum (Life Technologies), 100 units/mL penicillin and 100 μg/mL streptomycin, in an incubator of 5% CO2 at 37 °C. After suspension, the cells were coated on cover slips for 12 h, then transiently transfected with cDNA (pc3.1 DNA) for TRPV1 or TRPA1 with Lipofectamine 2000 (Invitrogen) for 24 h, and loaded with Fura-2 AM™ (Molecular Probes) for 40 min at 37 °C. After washing and recovery, KNRK cells were imaged at 340 and 380 nm excitation to detect free calcium influx. An increase of 50% of the 340/380 ratio was considered as the response threshold which were measured under masked conditions for plasmids. Compounds were applied to the bath and calcium response was acquired by an inverted Nikon fluorescence microscope with a CoolSnap HQ2 CCD camera (Photometrics, Tucson, AZ). Data were quantified offline with the Nikon-NIS program.

[2] abbreviates: 2 mg/mL four times a day, versus vehicle.
[3] abbreviates: 2 mg/mL four times a day, week 1 or week 2, n = 20.

Bounds are passed on as bounds.

T1 sequence (Q704Y3 whole entry): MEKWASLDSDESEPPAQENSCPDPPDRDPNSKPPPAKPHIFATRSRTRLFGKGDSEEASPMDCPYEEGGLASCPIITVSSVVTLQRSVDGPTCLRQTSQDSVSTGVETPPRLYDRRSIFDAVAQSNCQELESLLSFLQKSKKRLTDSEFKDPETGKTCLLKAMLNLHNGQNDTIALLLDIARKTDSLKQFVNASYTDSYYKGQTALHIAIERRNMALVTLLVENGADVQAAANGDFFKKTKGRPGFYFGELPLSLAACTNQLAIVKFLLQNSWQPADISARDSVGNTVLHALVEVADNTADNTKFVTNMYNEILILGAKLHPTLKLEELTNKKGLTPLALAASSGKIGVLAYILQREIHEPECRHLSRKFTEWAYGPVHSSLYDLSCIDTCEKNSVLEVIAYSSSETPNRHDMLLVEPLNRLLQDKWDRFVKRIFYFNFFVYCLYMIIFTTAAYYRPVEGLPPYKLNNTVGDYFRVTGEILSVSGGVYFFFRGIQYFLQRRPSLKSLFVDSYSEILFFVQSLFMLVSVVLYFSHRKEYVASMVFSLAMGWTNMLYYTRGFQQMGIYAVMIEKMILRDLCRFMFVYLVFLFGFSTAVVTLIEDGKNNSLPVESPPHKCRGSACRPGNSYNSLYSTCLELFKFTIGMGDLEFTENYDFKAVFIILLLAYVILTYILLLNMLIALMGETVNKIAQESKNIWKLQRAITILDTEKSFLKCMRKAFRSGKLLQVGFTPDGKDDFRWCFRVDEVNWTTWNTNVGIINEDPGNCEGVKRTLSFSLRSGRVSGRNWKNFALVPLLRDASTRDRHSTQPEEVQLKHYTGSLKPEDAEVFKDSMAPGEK

Consider `CCCCCCCCCP(=O)(C(C)C)C(C)C` [C3, 1-diisopropylphosphorylnonane], for which, in data set [1] (2 mg/mL four times a day, 1 and 2 weeks), the “CVS type of symptoms” value is recorded as “significantly improved”. In addition, the basal tear secretion entry in data set [1] (2 mg/mL four times a day, 1 and 2 weeks, versus baseline and vehicle) is reported as “significantly increased”. In data set [1] (setting [2]), the “severity of symptoms by VAS score” value is recorded as “significantly improved at week 2 but not at week 1” and the “total OSDI score” value is recorded as “significantly improved at week 2 but not at week 1”. Besides, in data set [1] (setting [3]), the KEP entry is “no significant changes” and the TBUT result is listed as “no significant changes”. Moreover, the “adverse effect (ocular pain, irritation, discomfort)” value in data set [1] (2 weeks study) is on record as “No significant adverse effect”. The “Shaking [15 min]” value in the data set with rats (intravenous 2 mg/kg, anesthetized rats) is “active”. The “body shakes after oral dosing” value in the data set with rats (oral 20 mg/kg, anesthetized and unanesthetized state) is reported as “no body shakes”. The “total number of shaking in the most active rat” value in the data set with rats (oral 50 mg/kg in 5% ethanol-95% R-1,2-propanediol, observation 120 min) was found to be 56 shakes. In the data set with rats (perioral 20 mg/kg, pentobarbital-anesthetized rats), the “Shaking [40 min]” value is “not active”. Moreover, the blurring result with volunteers (0.1 mg/mL eye drop, 5, 10 and 15 min) was “did not cause significant blurring”. Besides, the “Cooling sensation score (0-5)” value in the data set on volunteers (0.1 mg/mL eye drop, 5 min) is recorded as 2.6. In the data set on volunteers (0.1 mg/mL eye drop, 10 min), the “Cooling sensation score (0-5)” value came to 0.8. The “Cooling sensation score (0-5)” value in the data set with volunteers (0.1 mg/mL eye drop, 15 min) is listed as 0.2. Further, the “duration of cooling after eye drop” value in the data set on volunteers (0.1 mg/mL eye drop, volume printed as 70 μL) is at most 10 min. For the same compound, in the data set with volunteers (0.1 mg/mL, 50 μL eye drop, 10 or 15 min), the discomfort entry is given as “not at 10 or 15 min”. For the same compound, the “discomfort score (0-5)” value with volunteers (0.1 mg/mL, 50 μL eye drop, 5 min, n = 5) was 1.6. Further, the “activation of TRPV1 (calcium response)” value on mouse TRPV1 was “inactive”.
